Assay results published in patent publication US20050234073A1, “Methods of inhibiting inflammation” (priority 2003, published 2005).

Experiments:
[1] = test system: splenocytes, CD11c-positive splenic DCs and BMDCs; experiment: MHC class II-restricted presentation of ovalbumin to OT-II CD4+ T cells (IL-2 ELISA); type: cell-based, mouse
Protocol: FIG. 17F is a bar chart showing 11-2 production of CD11c^+ splenocytes incubated for 24 hours with BMS212122 or bone marrow derived dendritic cells incubated for 3 days with BMS212122 were washed and co cultured with 100 μg/mL ovalbumin and 100,000 CD4^+ cells from an OT-II transgenic mouse. IL-2 concentrations were measured by ELISA of 24 hour culture supernatants.
(§1) APCs were incubated with 100 ng/mL α-galcer (kindly provided by Dr. H. Ploegh) for 3 hours, washed three times in PBS and aliquoted into a 96 well plate at 10^6 cells/mL. DN32 cells were added at 1:1 E:T ratio unless otherwise indicated. CD4^+ cells were isolated from spleens of OT-II transgenic mice using positive selection on CD4 magnetic beads (Miltenyi Biotec) and incubated with APCs and 100 μg/mL ovalbumin. The 24.8 NKT cell line was incubated with APCs in the absence of added antigen at E:T=2:1 unless otherwise indicated. Mouse IL-2 production was assessed by ELISA (OptEIA, BD PharMingen) of 24 or 40 hour culture supernatants. APCs were treated with BMS212122 (10 uM dissolved in DMSO; kindly provided by Bristol Myers Squibb, New Jersey) as indicated and washed prior to addition of T or NKT cells. […]

[2] = test system: HepG2 cells; settings: cited from earlier work
[3] = test system: C1Rd cells; experiment: C1Rd cell presentation of α-galcer to DN32 NKT cells (IL-2 ELISA); type: cell-based, human; settings: C1Rd cells cultured 5 days with inhibitor
Protocol: FIG. 20D is a bar chart showing IL-2 production in C1Rd cells cultured with BMS212122 or vehicle for 5 days that were incubated with α-galcer for 3 hours IL-2 concentrations were measured by ELISA of 24 hour culture supernatants. *, p<0.02.
as §1
C1Rd is a human B cell line transfected with human CD1d. […] Incubation of C1Rd cells with BMS212122, but not the vehicle, inhibited the presentation of α-galcer as determined by a reduction in IL-2 secretion (FIG. 20D).

For `Cc1ccc2c(nc(C)n2CCCCC2(C(=O)NCC(F)(F)F)c3ccccc3-c3ccccc32)c1NC(=O)c1ccccc1-c1ccc(C(F)(F)F)cc1` [BMS212122, 9-[4-[2,5-Dimethyl-4-[[[4′-(trifluoromethyl)[1,1′-biphenyl]-2-yl]carbonyl]amino]-1H-benzimidazol-1-yl]butyl]-N-(2,2,2-trifluoroethyl)-9H-fluorene-9-carboxamide], the “presentation of ovalbumin to CD4+ MHC class II-restricted ovalbumin-specific T cells” value ([1]; CD11c-positive splenic DCs and BMDCs, inhibitor-treated) is given as “efficient presentation”, the “splenocyte presentation of ovalbumin to MHC class II-restricted T cell line OT-II” value ([1]; splenocytes, 24 hours inhibitor) is given as “no effect” and the “secretion of apoB from HepG2 cells” value [2] is given as “prevents secretion”. For the same compound, the “presentation of α-galcer (IL-2 secretion)” value [3] was “inhibited”.
